Measured values published in article PMC11054573, “Identification of Ureidocoumarin-Based Selective Discoidin Domain Receptor 1 (DDR1) Inhibitors via Drug Repurposing Approach, Biological Evaluation, and In Silico Studies” (Pharmaceuticals, 2024).

What was measured:
DDR1 = DDR1 (Homo sapiens, UniProt Q08345); test: RBC radiometric HotSpot kinase assay, DDR1; conditions: for inhibition at 10 µM: read-out: % Inhibition at 10 μM (SEM) DDR1; for SI: Selectivity index (IC50 DDR2/IC50 DDR1): DDR1 over DDR2
Sequence of DDR1 (Q08345 19-913): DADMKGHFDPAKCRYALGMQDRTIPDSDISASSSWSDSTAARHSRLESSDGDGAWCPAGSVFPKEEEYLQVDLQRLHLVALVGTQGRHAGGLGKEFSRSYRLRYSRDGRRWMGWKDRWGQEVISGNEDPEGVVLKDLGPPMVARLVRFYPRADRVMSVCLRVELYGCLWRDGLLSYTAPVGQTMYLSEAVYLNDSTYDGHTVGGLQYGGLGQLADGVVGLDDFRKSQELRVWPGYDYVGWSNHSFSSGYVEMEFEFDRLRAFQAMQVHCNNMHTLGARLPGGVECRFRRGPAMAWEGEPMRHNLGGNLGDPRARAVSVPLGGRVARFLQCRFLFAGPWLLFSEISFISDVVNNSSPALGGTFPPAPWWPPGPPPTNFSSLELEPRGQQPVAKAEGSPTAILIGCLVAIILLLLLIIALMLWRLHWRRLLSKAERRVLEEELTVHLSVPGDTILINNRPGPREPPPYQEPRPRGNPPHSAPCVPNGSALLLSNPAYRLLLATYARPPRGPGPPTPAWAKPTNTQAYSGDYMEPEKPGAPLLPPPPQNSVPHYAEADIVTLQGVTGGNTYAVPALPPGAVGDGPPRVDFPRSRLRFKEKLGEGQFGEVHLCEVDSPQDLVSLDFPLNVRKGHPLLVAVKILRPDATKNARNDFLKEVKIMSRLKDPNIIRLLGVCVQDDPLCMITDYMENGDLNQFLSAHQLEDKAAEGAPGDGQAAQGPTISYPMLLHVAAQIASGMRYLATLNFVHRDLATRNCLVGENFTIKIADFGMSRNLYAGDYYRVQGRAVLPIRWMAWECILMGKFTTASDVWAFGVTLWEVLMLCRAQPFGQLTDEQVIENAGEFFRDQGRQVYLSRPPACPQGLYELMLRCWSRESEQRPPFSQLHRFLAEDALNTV
Method: (§7) All compounds in this study were tested against DDR1 and DDR2 at a 10 µM dose at Reaction Biology Corporation (RBC, Malvern, PA, USA) employing the radiometric HotSpot Kinase assay protocol (Table 1).

DDR2 = target: T1, DDR2 (Homo sapiens, UniProt Q16832); test: RBC radiometric HotSpot kinase assay, DDR2; conditions: for inhibition at 10 µM: read-out: % Inhibition at 10 μM (SEM) DDR2
T1 sequence (Q16832 22-855): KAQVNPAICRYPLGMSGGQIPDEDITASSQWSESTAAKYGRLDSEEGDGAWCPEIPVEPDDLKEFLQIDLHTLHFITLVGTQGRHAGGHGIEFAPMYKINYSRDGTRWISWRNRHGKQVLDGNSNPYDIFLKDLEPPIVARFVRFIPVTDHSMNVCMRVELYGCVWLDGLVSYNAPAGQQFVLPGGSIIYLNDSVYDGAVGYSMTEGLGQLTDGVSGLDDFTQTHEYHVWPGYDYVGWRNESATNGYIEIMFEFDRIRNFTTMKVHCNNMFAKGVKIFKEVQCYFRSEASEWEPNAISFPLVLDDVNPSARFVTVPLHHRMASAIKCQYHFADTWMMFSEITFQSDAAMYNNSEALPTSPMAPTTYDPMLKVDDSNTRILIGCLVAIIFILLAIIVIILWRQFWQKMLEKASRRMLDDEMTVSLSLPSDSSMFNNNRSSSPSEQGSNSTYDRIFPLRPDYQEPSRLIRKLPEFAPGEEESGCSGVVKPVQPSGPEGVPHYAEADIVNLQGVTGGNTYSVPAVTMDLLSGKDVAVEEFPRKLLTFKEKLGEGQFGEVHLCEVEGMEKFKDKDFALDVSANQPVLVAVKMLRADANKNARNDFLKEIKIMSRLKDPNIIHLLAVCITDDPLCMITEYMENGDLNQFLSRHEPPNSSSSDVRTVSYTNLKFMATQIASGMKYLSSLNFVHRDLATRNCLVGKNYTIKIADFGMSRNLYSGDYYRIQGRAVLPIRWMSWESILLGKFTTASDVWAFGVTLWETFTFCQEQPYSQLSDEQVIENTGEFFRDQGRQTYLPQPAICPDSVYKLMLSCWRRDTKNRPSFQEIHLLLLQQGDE
Method: as §7

[1] = tested on: MCF-7 breast cancer cells; test: NCI SRB antiproliferative assay, MCF-7; format: cell-based; conditions: Homo sapiens, MCF7; for GI50: five-dose testing; for inhibition at 10 µM: read-out: % Growth inhibition at 10 µM MCF-7
Method: (§1) Six members, 3a, 3g–j, and 3q, out of the investigated compounds were further evaluated for their antiproliferative effects against human cancer cell lines, including leukemia (K562), colon cancer (HCT116), non-small cell lung (NSCL) cancer (A549, NCI-H23 and NCI-H460), and breast cancer (MCF-7 and T47D) cells. The tested cell lines’ choice depended on their elevated DDR1 expression levels. The cell lines were all treated with a 10 µM concentration of the tested compounds, and the results were expressed as the percentage of growth inhibition (%GI) (Table 4).
(§2) Inhibition of the tumor relevant carbonic anhydrases IX and XII may be one of these additional mechanisms.
(§3) The evaluation of the antiproliferative activities of compounds 3a, 3g–j, and 3q over a panel of DDR1-dependent cell lines was conducted employing the sensitive Sulforhodamine B (SRB) assay at the National Cancer Institute (NCI), Bethesda, Maryland, USA, following the standard protocol.

[2] = tested on: NCI-H460 non-small cell lung cancer cells; test: NCI SRB antiproliferative assay, NCI-H460; format: cell-based; conditions: Homo sapiens; for GI50: five-dose testing; for inhibition at 10 µM: read-out: % Growth inhibition at 10 µM NCI-H460
Method: as §1, §2, §3

K562 leukemia cells = test: NCI SRB antiproliferative assay, K562; format: cell-based; conditions: Homo sapiens; for GI50: five-dose testing; for inhibition at 10 µM: read-out: % Growth inhibition at 10 µM K562
Method: as §1, §2, §3

[3] = tested on: HCT116 colon cancer cells; test: NCI SRB antiproliferative assay, HCT116; format: cell-based; conditions: Homo sapiens, HCT-116; for GI50: five-dose testing; for inhibition at 10 µM: read-out: % Growth inhibition at 10 µM HCT116
Method: as §1, §2, §3

[4] = tested on: DDR1-dependent cancer cell lines; test: NCI SRB antiproliferative assay, whole panel of DDR1-dependent cell lines; format: cell-based, human; conditions: span over the seven cell lines; for %GI over all tested cell lines: 10 µM
Method: as §1, §2, §3

T47D breast cancer cells = test: NCI SRB antiproliferative assay, T47D; format: cell-based; conditions: Homo sapiens; for GI50: five-dose testing; for inhibition at 10 µM: read-out: % Growth inhibition at 10 µM T47D
Method: as §1, §2, §3

[5] = tested on: A549 non-small cell lung cancer cells; test: NCI SRB antiproliferative assay, A549; format: cell-based; conditions: Homo sapiens; for GI50: five-dose testing; for inhibition at 10 µM: read-out: % Growth inhibition at 10 µM A549
Method: as §1, §2, §3

[6] = tested on: NCI-H23 non-small cell lung cancer cells; test: NCI SRB antiproliferative assay, NCI-H23; format: cell-based; conditions: Homo sapiens; for GI50: five-dose testing; for inhibition at 10 µM: read-out: % Growth inhibition at 10 µM NCI-H23
Method: as §1, §2, §3

c-Kit kinase = target: T2, c-Kit kinase (Homo sapiens, UniProt P10721); test: Biochemical kinase profile (23 oncogenic kinases), c-Kit; conditions: 10 μM compound, 10 μM ATP, single-dose duplicate
T2 construct: purchased Reaction Biology Corporation (RBC)
T2 sequence (P10721 26-976): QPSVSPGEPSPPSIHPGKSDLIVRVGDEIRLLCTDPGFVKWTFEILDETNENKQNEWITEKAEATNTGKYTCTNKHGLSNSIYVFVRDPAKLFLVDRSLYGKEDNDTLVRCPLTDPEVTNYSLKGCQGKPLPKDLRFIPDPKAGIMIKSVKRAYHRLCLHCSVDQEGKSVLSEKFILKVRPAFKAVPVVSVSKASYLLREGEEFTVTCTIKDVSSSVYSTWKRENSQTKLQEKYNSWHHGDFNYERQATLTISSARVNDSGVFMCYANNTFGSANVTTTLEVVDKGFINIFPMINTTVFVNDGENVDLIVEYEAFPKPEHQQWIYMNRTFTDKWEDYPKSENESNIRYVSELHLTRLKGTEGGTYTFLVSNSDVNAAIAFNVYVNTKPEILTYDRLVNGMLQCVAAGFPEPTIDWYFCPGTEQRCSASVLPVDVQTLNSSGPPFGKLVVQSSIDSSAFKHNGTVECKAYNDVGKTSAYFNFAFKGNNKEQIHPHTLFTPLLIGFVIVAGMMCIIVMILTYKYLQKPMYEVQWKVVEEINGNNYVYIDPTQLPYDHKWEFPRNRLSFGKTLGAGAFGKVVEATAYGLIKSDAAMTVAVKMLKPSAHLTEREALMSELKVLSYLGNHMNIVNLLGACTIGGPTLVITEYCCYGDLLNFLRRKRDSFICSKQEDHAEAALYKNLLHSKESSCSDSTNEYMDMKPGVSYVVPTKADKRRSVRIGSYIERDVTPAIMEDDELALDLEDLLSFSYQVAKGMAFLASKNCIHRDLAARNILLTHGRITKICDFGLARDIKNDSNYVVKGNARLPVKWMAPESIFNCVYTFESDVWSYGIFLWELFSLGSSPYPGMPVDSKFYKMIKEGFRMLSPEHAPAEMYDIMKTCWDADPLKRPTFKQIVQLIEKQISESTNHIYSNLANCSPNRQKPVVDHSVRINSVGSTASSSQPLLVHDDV
Method: (§4) These tested kinases were selected based on common off targets for several DDR1/2 kinase inhibitors.
(§5) Reaction Biology Corporation (RBC) Kinase HotSpot^SM service was adopted for biochemical evaluation of the target compounds against DDR1 and DDR2 kinases along with the kinase profile of compound 3q according to the reported assay protocol.
(§6) Figure 5 Inhibition percentages exerted by compound 3q (10 µM) over a panel of 23 oncogenic kinases. Compound 3q was tested in a single-dose duplicate mode, and the reactions were carried out at 10 μM ATP.

TrkA kinase = target: T3, TrkA kinase (Homo sapiens, UniProt P04629); test: Biochemical kinase profile (23 oncogenic kinases), TrkA; conditions: 10 μM compound, 10 μM ATP, single-dose duplicate
T3 construct: purchased Reaction Biology Corporation (RBC)
T3 sequence (P04629 33-796): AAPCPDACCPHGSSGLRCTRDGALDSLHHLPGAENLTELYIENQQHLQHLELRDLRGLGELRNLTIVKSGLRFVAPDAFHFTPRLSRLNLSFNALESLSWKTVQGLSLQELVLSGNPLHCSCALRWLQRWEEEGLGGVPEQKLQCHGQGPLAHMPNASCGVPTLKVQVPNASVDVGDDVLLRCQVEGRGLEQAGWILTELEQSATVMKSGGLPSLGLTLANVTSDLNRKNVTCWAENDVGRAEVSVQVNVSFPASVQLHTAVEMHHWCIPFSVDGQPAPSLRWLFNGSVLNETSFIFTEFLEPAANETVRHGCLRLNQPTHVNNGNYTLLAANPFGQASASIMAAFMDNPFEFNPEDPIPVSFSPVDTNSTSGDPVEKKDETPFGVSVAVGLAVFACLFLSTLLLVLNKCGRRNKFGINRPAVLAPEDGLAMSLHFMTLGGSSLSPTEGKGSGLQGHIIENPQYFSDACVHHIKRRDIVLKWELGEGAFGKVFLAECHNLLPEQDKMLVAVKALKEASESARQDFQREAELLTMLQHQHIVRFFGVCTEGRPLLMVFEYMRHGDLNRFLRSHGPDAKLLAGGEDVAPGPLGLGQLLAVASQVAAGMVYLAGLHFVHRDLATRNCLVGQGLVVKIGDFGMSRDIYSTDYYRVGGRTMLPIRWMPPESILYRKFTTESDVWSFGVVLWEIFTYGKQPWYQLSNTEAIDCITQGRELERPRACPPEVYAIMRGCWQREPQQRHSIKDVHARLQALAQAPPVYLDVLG
Method: as §4, §5, §6

ABL1 kinase = target: T4, ABL1 kinase (Homo sapiens, UniProt P00519); test: Biochemical kinase profile (23 oncogenic kinases), ABL1; conditions: 10 μM compound, 10 μM ATP, single-dose duplicate; read-out: % inhibition ABL1 kinase (and rest of tested kinases)
T4 construct: purchased Reaction Biology Corporation (RBC)
T4 sequence (P00519 whole entry): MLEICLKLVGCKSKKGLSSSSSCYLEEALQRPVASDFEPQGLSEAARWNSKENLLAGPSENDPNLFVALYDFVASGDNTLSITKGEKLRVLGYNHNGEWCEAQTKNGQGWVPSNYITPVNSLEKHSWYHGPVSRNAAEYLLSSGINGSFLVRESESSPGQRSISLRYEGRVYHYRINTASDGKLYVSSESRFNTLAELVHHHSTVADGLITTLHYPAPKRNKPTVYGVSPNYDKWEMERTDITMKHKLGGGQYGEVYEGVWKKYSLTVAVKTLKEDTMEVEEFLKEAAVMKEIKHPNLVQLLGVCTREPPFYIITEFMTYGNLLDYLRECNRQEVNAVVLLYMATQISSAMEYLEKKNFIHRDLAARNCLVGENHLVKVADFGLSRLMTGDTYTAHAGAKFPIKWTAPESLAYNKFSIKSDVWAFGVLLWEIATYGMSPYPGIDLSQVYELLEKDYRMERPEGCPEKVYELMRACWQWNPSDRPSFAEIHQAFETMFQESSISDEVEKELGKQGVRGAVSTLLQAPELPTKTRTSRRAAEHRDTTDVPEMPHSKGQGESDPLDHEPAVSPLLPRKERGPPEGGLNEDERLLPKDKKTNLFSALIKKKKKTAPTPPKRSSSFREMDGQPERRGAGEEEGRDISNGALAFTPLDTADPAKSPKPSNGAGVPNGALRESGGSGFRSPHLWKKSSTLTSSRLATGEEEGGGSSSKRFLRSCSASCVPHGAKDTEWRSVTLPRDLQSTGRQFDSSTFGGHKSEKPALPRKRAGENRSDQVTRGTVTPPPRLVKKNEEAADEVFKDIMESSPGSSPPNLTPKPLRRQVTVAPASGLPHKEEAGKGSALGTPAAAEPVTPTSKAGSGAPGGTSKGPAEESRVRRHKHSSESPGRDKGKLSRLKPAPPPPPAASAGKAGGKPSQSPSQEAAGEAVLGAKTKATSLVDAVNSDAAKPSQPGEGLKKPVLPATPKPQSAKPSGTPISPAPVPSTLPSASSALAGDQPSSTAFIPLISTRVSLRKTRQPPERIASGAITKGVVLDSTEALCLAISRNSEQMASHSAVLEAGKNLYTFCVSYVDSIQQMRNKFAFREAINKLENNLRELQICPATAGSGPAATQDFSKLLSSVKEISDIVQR
Method: as §4, §5, §6

SMILES | inhibition at 10 µM (DDR1) [%] | inhibition at 10 µM (DDR2) [%] | inhibition at 10 µM [1] [%] | inhibition at 10 µM [2] [%] | inhibition at 10 µM (K562 leukemia cells) [%] | IC50 (DDR1) [nM] | SI: Selectivity index (IC50 DDR2/IC50 DDR1) (DDR1) | inhibition at 10 µM [3] [%] | IC50 (DDR2) [nM] | inhibition at 10 µM (T47D breast cancer cells) [%] | inhibition at 10 µM [5] [%] | inhibition at 10 µM [6] [%] | further results
O=C(Nc1ccc(F)cc1)Nc1ccc2oc(=O)ccc2c1 [Compound 3c] | 25.6 | 15.9 |  |  |  |  |  |  |  |  |  |  | 
O=C(Nc1ccc2oc(=O)ccc2c1)c1cc(F)cc(F)c1 [Compound 4c] | 22.4 | 17 |  |  |  |  |  |  |  |  |  |  | 
O=C(Nc1ccc2oc(=O)ccc2c1)Nc1ccc(Cl)cc1Cl [Compound 3l] | 19 | 17.1 |  |  |  |  |  |  |  |  |  |  | 
O=C(Nc1cc(Cl)cc(Cl)c1)Nc1ccc2oc(=O)ccc2c1 [Compound 3j] | 48.5 | 23.3 | 94.5 | 98.8 | 84.6 | 2520 | >4.0 | 98.6 | > 10000 | 96.5 | 83.8 | 106 | GI50 [1]: 2280 nM; GI50 [2]: 2270 nM; GI50 (K562 leukemia cells): 2340 nM; GI50 [3]: 2310 nM; GI50 ([4]; Homo sapiens, read-out: GI50 over all tested cell lines): 1930 to 2900 nM; GI50 (T47D breast cancer cells): 1930 nM; GI50 [5]: 2900 nM; GI50 [6]: 2670 nM
O=C(Nc1cc(C(F)(F)F)cc(C(F)(F)F)c1)Nc1ccc2oc(=O)ccc2c1 [Compound 3i] | 77.1 | 67.3 | 96.2 | 93.6 | 86.3 | 1530 | 12.4 | 97.9 | 19000 | 95.2 | 84.8 | 100 | GI50 [1]: 1940 nM; GI50 [2]: 690 nM; GI50 (K562 leukemia cells): 550 nM; GI50 [3]: 732 nM; GI50 (T47D breast cancer cells): 1340 nM; GI50 [5]: 1590 nM; GI50 [6]: 940 nM
Cc1cc(Cl)ccc1NC(=O)Nc1ccc2oc(=O)ccc2c1 [Compound 3n] | 10.7 | 8.02 |  |  |  |  |  |  |  |  |  |  | 
O=C(Nc1ccc(Cl)c(C(F)(F)F)c1)Nc1ccc2oc(=O)ccc2c1 [Compound 3g] | 49 | 39.3 | 88.1 | 81.9 | 80.8 | 2900 | >3.4 | 84.3 | > 10000 | 91.3 | 60.1 | 95.2 | 
O=C(Nc1cccc(OC(F)(F)F)c1)Nc1ccc2oc(=O)ccc2c1 [Compound 3q, 1-(2-Oxo-2H-chromen-6-yl)-3-(3-(trifluoromethoxy)phenyl)urea] | 87.4 | 70.1 | 57 | 69.9 | 67.1 | 191 | 26.6 | 66.3 | 5080 | 69.4 | 45.6 | 56.6 | %EI c-Kit kinase (c-Kit kinase): 75.59%; %GI over all tested cell lines [4]: 45.65–69.93%; %EI TrkA kinase (TrkA kinase): 46.95%; inhibition at 10 µM (ABL1 kinase): < 25%
Cn1ccc(-c2cncc(CNc3cc(C(=O)Nc4cccc(OC(F)(F)F)c4)ccc3F)c2)n1 [VU6015929, reference compound] |  |  |  |  |  |  |  |  | 1.55 |  |  |  | 
O=C(Nc1ccc2oc(=O)ccc2c1)Nc1ccc(F)cc1F [Compound 3m] | 5.83 | 0.78 |  |  |  |  |  |  |  |  |  |  | 
O=C(Nc1ccc(F)c(Cl)c1)Nc1ccc2oc(=O)ccc2c1 [Compound 3h] | 57.2 | 27.5 | 25.4 | 20.6 | 32.2 | 1660 | >6.0 | 14.1 | > 10000 | 24.6 | 15.1 | 14.3 | %GI over all tested cell lines [4]: < 35%
O=C(Nc1ccc(Br)cc1)Nc1ccc2oc(=O)ccc2c1 [Compound 3d] | 23.1 | 7.53 |  |  |  |  |  |  |  |  |  |  | 
